Results on six compounds are retold here after patent US9486506B2 (Novo Nordisk A/S, priority 2011, dated 2016).

Each structure is given as a SMILES string. pEC50: −log10 of the molar value. Numbered stars: 1 amine (or outer) side, 2 acyl side, 3 side chain; on linkers, the order of the positions; unused ones are H or OH. Side chains are listed from the residue outwards. Peptide text beside a SMILES is read from it. * marks the point of attachment. X1 = O=C(CCCCCCCCCCCCCCCc1nnn[nH]1)NS(=O)(=O)CCCC(=O)*; C16 diacid = O=C(O)CCCCCCCCCCCCCCC(=O)*; γGlu = O=C(O)[C@H](CCC(=O)[*:2])N[*:1]; AEEA = NCCOCCOCC(=O)O

The nature of series [1]: Assay (X) Chemical stability assessment by RP-UPLC. It counts as physicochemical. Particulars: pH 8.15, 14 days at 37° C. vs 5° C., 333 μM.
The target in series [2] is T1, glucagon receptor (Homo sapiens, UniProt P47871).
T1 construct: expressed in transfected cells
Description: Assay (I) Glucagon activity (cAMP biosensor, FLIPR). The format is cell-based.

T1 sequence (P47871 26-477): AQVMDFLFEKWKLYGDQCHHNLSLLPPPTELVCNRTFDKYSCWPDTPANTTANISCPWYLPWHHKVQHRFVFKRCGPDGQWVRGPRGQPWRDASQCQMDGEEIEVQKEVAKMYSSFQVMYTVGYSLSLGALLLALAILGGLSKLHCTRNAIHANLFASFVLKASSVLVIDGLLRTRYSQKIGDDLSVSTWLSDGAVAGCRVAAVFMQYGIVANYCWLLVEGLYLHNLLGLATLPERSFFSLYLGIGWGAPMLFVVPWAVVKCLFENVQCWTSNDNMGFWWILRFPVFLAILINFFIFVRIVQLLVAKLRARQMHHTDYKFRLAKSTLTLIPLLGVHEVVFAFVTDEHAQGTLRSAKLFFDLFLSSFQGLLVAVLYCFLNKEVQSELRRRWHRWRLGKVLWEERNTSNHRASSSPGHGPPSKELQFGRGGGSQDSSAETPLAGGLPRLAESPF

Turning to `CC(C)C[C@H](NC(=O)[C@H](CC(=O)O)NC(=O)[C@H](CC(C)C)NC(=O)[C@H](Cc1ccc(O)cc1)NC(=O)[C@H](CCCNC(=N)N)NC(=O)[C@H](CO)NC(=O)[C@H](Cc1ccc(O)cc1)NC(=O)[C@H](CC(=O)O)NC(=O)[C@H](CO)NC(=O)[C@@H](NC(=O)[C@H](Cc1ccccc1)NC(=O)[C@@H](NC(=O)CNC(=O)[C@H](CCC(N)=O)NC(=O)[C@H](CO)NC(=O)[C@@H](N)Cc1c[nH]cn1)[C@@H](C)O)[C@@H](C)O)C(=O)N[C@@H](CCCNC(=N)N)C(=O)N[C@@H](CCCNC(=N)N)C(=O)N[C@@H](C)C(=O)N[C@@H](CCC(N)=O)C(=O)N[C@@H](CC(=O)O)C(=O)N[C@@H](Cc1ccccc1)C(=O)N[C@H](C(=O)N[C@@H](CCCCNC(=O)CC[C@H](NC(=O)CC[C@H](NC(=O)COCCOCCNC(=O)COCCOCCNC(=O)CC[C@H](NC(=O)CCCS(=O)(=O)NC(=O)CCCCCCCCCCCCCCCc1nnn[nH]1)C(=O)O)C(=O)O)C(=O)O)C(=O)N[C@@H](Cc1c[nH]c2ccccc12)C(=O)N[C@@H](CC(C)C)C(=O)N[C@@H](CC(C)C)C(=O)N[C@@H](CO)C(=O)N[C@H](C(=O)O)[C@@H](C)O)C(C)C` [Example 67, N^ε24-[(4S)-4-carboxy-4-[[(4S)-4-carboxy-4-[[2-[2-[2-[[2-[2-[2-[[(4S)-4-carboxy-4-[4-[16-(1H-tetrazol-5-yl)hexadecanoylsulfannoyl]butanoylamino]butanoyl]amino]ethoxy]ethoxy]acetyl]amino]ethoxy]ethoxy]acetyl]amino]butanoyl]amino]butanoyl]-[Arg12,Leu16,Lys24,Leu27,Ser28]-Glucagon] (H-HSQGTFTSDYSRYLDLRRAQDFVK([γGlu-γGlu-AEEA-AEEA-γGlu-X1])WLLST-OH), the “Chemical stability [Purity loss/14 days 37 C.]” value in series [1] was determined as 7.4%. Also, the pEC50 in series [2] was 9.64.
Regarding `CC(C)C[C@H](NC(=O)[C@H](CC(=O)O)NC(=O)[C@H](CC(C)C)NC(=O)[C@H](Cc1ccc(O)cc1)NC(=O)[C@H](CCCNC(=N)N)NC(=O)[C@H](CO)NC(=O)[C@H](Cc1ccc(O)cc1)NC(=O)[C@H](CC(=O)O)NC(=O)[C@H](CO)NC(=O)[C@@H](NC(=O)[C@H](Cc1ccccc1)NC(=O)[C@@H](NC(=O)CNC(=O)[C@H](CCC(N)=O)NC(=O)[C@H](CO)NC(=O)[C@@H](N)Cc1c[nH]cn1)[C@@H](C)O)[C@@H](C)O)C(=O)N[C@@H](CCCNC(=N)N)C(=O)N[C@@H](CCCNC(=N)N)C(=O)N[C@@H](C)C(=O)N[C@@H](CCC(N)=O)C(=O)N[C@@H](CC(=O)O)C(=O)N[C@@H](Cc1ccccc1)C(=O)N[C@H](C(=O)N[C@@H](CCCCNC(=O)CC[C@H](NC(=O)CC[C@H](NC(=O)COCCOCCNC(=O)COCCOCCNC(=O)CCCS(=O)(=O)NC(=O)CCCCCCCCCCCCCCCc1nnn[nH]1)C(=O)O)C(=O)O)C(=O)N[C@@H](Cc1c[nH]c2ccccc12)C(=O)N[C@@H](CC(C)C)C(=O)N[C@@H](CC(C)C)C(=O)N[C@@H](CO)C(=O)N[C@H](C(=O)O)[C@@H](C)O)C(C)C` [Example 68, N^ε24-[(4S)-4-carboxy-4-[[(4S)-4-carboxy-4-[[2-[2-[2-[[2-[2-[2-[4-[16-(1H-tetrazol-5-yl)hexadecanoylsulfannoyl]butanoylamino]ethoxy]ethoxy]acetyl]amino]ethoxy]ethoxy]acetyl]amino]butanoyl]amino]butanoyl]-[Arg12, Leu16, Lys24, Leu27,Ser28]-Glucagon] (H-HSQGTFTSDYSRYLDLRRAQDFVK([γGlu-γGlu-AEEA-AEEA-X1])WLLST-OH), the “Chemical stability [Purity loss/14 days 37 C.]” value in series [1] is 5.6%. Besides, the pEC50 in series [2] was 9.45.
As for `CC(C)C[C@H](NC(=O)[C@H](Cc1ccc(O)cc1)NC(=O)[C@H](CCCCN)NC(=O)[C@H](CO)NC(=O)[C@H](Cc1ccc(O)cc1)NC(=O)[C@H](CC(=O)O)NC(=O)[C@H](CO)NC(=O)[C@@H](NC(=O)[C@H](Cc1ccccc1)NC(=O)[C@@H](NC(=O)CNC(=O)[C@H](CCC(N)=O)NC(=O)[C@H](CO)NC(=O)[C@@H](N)Cc1c[nH]cn1)[C@@H](C)O)[C@@H](C)O)C(=O)N[C@@H](CCC(=O)O)C(=O)N[C@@H](CO)C(=O)N[C@@H](CCCNC(=N)N)C(=O)N[C@@H](CCCNC(=N)N)C(=O)N[C@@H](C)C(=O)N[C@@H](CCC(N)=O)C(=O)N[C@@H](CC(=O)O)C(=O)N[C@@H](Cc1ccccc1)C(=O)N[C@H](C(=O)N[C@@H](CCCCNC(=O)CC[C@H](NC(=O)CC[C@H](NC(=O)COCCOCCNC(=O)COCCOCCNC(=O)CC[C@H](NC(=O)CCCCCCCCCCCCCCC(=O)O)C(=O)O)C(=O)O)C(=O)O)C(=O)N[C@@H](Cc1c[nH]c2ccccc12)C(=O)N[C@@H](CC(C)C)C(=O)N[C@@H](CC(C)C)C(=O)N[C@@H](CO)C(=O)N[C@H](C(=O)O)[C@@H](C)O)C(C)C` [Example 69, N^ε24-[(4S)-4-carboxy-4-[[(4S)-4-carboxy-4-[[2-[2-[2-[[2-[2-[2-[[(4S)-4-carboxy-4-(15-carboxypentadecanoylamino)butanoyl]amino]ethoxy]ethoxy]acetyl]amino]ethoxy]ethoxy]acetyl]amino]butanoyl]amino]butanoyl]-[Glu15,Lys24,Leu27,Ser28]-Glucagon], the “Chemical stability [Purity loss/14 days 37 C.]” value in series [1] is 8.2%. This compound had a pEC50 in series [2] of 10.15.
For `CC(C)C[C@H](NC(=O)[C@H](Cc1ccc(O)cc1)NC(=O)[C@H](CCCNC(=N)N)NC(=O)[C@H](CO)NC(=O)[C@H](Cc1ccc(O)cc1)NC(=O)[C@H](CC(=O)O)NC(=O)[C@H](CO)NC(=O)[C@@H](NC(=O)[C@H](Cc1ccccc1)NC(=O)[C@@H](NC(=O)CNC(=O)[C@H](CCC(N)=O)NC(=O)[C@H](CO)NC(=O)[C@@H](N)Cc1c[nH]cn1)[C@@H](C)O)[C@@H](C)O)C(=O)N[C@@H](CCC(=O)O)C(=O)N[C@@H](CO)C(=O)N[C@@H](CCCNC(=N)N)C(=O)N[C@@H](CCCNC(=N)N)C(=O)N[C@@H](C)C(=O)N[C@@H](CCC(N)=O)C(=O)N[C@@H](CC(=O)O)C(=O)N[C@@H](Cc1ccccc1)C(=O)N[C@H](C(=O)N[C@@H](CCCCNC(=O)CC[C@H](NC(=O)CC[C@H](NC(=O)COCCOCCNC(=O)COCCOCCNC(=O)CC[C@H](NC(=O)CCCCCCCCCCCCCCC(=O)O)C(=O)O)C(=O)O)C(=O)O)C(=O)N[C@@H](Cc1c[nH]c2ccccc12)C(=O)N[C@@H](CC(C)C)C(=O)N[C@@H](CC(C)C)C(=O)N[C@@H](CO)C(=O)N[C@H](C(=O)O)[C@@H](C)O)C(C)C` [Example 70, N^ε24-[(4S)-4-carboxy-4-[[(4S)-4-carboxy-4-[[2-[2-[2-[[2-[2-[2-[[(4S)-4-carboxy-4-(15-carboxypentadecanoylamino)butanoyl]amino]ethoxy]ethoxy]acetyl]amino]ethoxy]ethoxy]acetyl]amino]butanoyl]amino]butanoyl]-[Arg12,Glu15,Lys24,Leu27,Ser28]-Glucagon] (H-HSQGTFTSDYSRYLESRRAQDFVK([γGlu-γGlu-AEEA-AEEA-γGlu-C16 diacid])WLLST-OH), the “Chemical stability [Purity loss/14 days 37 C.]” value in series [1] was determined as 7.6%. Also, in series [2], the negative-log EC50 (pEC50) is 9.85.
For `CC(C)C[C@H](NC(=O)[C@H](Cc1ccc(O)cc1)NC(=O)[C@H](CCCNC(=N)N)NC(=O)[C@H](CO)NC(=O)[C@H](Cc1ccc(O)cc1)NC(=O)[C@H](CC(=O)O)NC(=O)[C@H](CO)NC(=O)[C@@H](NC(=O)[C@H](Cc1ccccc1)NC(=O)[C@@H](NC(=O)CNC(=O)[C@H](CCC(N)=O)NC(=O)[C@H](CO)NC(=O)[C@@H](N)Cc1c[nH]cn1)[C@@H](C)O)[C@@H](C)O)C(=O)N[C@@H](CC(=O)O)C(=O)N[C@@H](C)C(=O)N[C@@H](CCCNC(=N)N)C(=O)N[C@@H](CCCNC(=N)N)C(=O)N[C@@H](C)C(=O)N[C@@H](CCC(N)=O)C(=O)N[C@@H](CC(=O)O)C(=O)N[C@@H](Cc1ccccc1)C(=O)N[C@H](C(=O)N[C@@H](CCCCNC(=O)CC[C@H](NC(=O)CC[C@H](NC(=O)CC[C@H](NC(=O)CCCCCCCCCCCCCCC(=O)O)C(=O)O)C(=O)O)C(=O)O)C(=O)N[C@@H](Cc1c[nH]c2ccccc12)C(=O)N[C@@H](CC(C)C)C(=O)N[C@@H](CC(C)C)C(=O)N[C@@H](CO)C(=O)N[C@H](C(=O)O)[C@@H](C)O)C(C)C` [Example 72, N^ε24-[(4S)-4-carboxy-4-[[(4S)-4-carboxy-4-[[(4S)-4-carboxy-4-(15-carboxypentadecanoylamino)butanoyl]amino]butanoyl]amino]butanoyl]-[Arg12,Ala16,Lys24,Leu27,Ser28]-Glucagon] (H-HSQGTFTSDYSRYLDARRAQDFVK([γGlu-γGlu-γGlu-C16 diacid])WLLST-OH) the same measures were 6.1% and 10.80.
For `CC[C@H](C)[C@H](NC(=O)[C@H](CC(=O)O)NC(=O)[C@H](CC(C)C)NC(=O)[C@H](Cc1ccc(O)cc1)NC(=O)[C@H](CCCCN)NC(=O)[C@H](CO)NC(=O)[C@H](Cc1ccc(O)cc1)NC(=O)[C@H](CC(=O)O)NC(=O)[C@H](CO)NC(=O)[C@@H](NC(=O)[C@H](Cc1ccccc1)NC(=O)[C@@H](NC(=O)CNC(=O)[C@H](CCC(N)=O)NC(=O)[C@H](CO)NC(=O)[C@@H](N)Cc1c[nH]cn1)[C@@H](C)O)[C@@H](C)O)C(=O)N[C@@H](CCCNC(=N)N)C(=O)N[C@@H](CCCNC(=N)N)C(=O)N[C@@H](C)C(=O)N[C@@H](CCC(N)=O)C(=O)N[C@@H](CC(=O)O)C(=O)N[C@@H](Cc1ccccc1)C(=O)N[C@H](C(=O)N[C@@H](CCCCNC(=O)CC[C@H](NC(=O)CC[C@H](NC(=O)CC[C@H](NC(=O)CC[C@H](NC(=O)CCCCCCCCCCCCCCCCC(=O)O)C(=O)O)C(=O)O)C(=O)O)C(=O)O)C(=O)N[C@@H](Cc1c[nH]c2ccccc12)C(=O)N[C@@H](CC(C)C)C(=O)N[C@@H](CC(C)C)C(=O)N[C@@H](CO)C(=O)N[C@H](C(N)=O)[C@@H](C)O)C(C)C` [Example 75, N^ε24-[(4S)-4-carboxy-4-[[(4S)-4-carboxy-4-[[(4S)-4-carboxy-4-[[(4S)-4-carboxy-4-(17-carboxyheptadecanoylamino)butanoyl]amino]butanoyl]amino]butanoyl]amino]butanoyl]-[Ile16,Lys24,Leu27,Ser28]-Glucagon amide] the same measures were 3.6% and 9.40.
